# ± gives the standard deviation of the averaged measurements.
# Compound: CC(=O)N1CCc2c(c(N3CCCc4cc(-c5cnn(C)c5)c(C(F)F)cc43)nn2C2CCC(CN3CCN(c4ccc5c(c4)C(=O)N(C4CCC(=O)NC4=O)C5=O)CC3)CC2)C1 [CBPD-409]
# Experiment: AUC of viability dose-response curve (relative to vehicle, 8 doses up to 10 µM) (fraction); higher = less sensitive (more viable); extreme values may be limits of the assay
# Protocol: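 PRISM multiplexed pooled barcoded cell line viability screen at the Broad Institute, 887 cancer cell lines treated with CBPD-409 (p300/CBP PROTAC degrader) at 8 concentrations in threefold dilution, top dose 10 µM. The read-out is the area under the dose-response curve of relative viability versus vehicle (n=3). AUC < 0.3 is called strongly sensitive and AUC > 0.8 resistant.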
row,Test System,AUC of viability dose-response curve
1,RH4_SOFT_TISSUE,0.308
2,RH28_SOFT_TISSUE,0.625
3,RH30_SOFT_TISSUE,0.841 ± 0.22
4,RH36_SOFT_TISSUE,0.779
5,RHJT_SOFT_TISSUE,0.512
6,RI1_HAEMATOPOIETIC_AND_LYMPHOID_TISSUE,0.424
7,RKN_SOFT_TISSUE,1
8,RKO_LARGE_INTESTINE,0.854
9,RL952_ENDOMETRIUM,0.996
10,RL_HAEMATOPOIETIC_AND_LYMPHOID_TISSUE,0.651
11,RMGI_OVARY,0.73
12,RMSYM_SOFT_TISSUE,0.394
13,RMUGS_OVARY,0.866
14,RO82W1_THYROID,1
15,RPMI7951_SKIN,1
16,RPMI8402_HAEMATOPOIETIC_AND_LYMPHOID_TISSUE,0.266
17,RT4_URINARY_TRACT,0.887
18,RT112_URINARY_TRACT,0.83
19,RVH421_SKIN,0.929
20,S117_THYROID,0.612
21,SAOS2_BONE,0.466
22,SBC5_LUNG,0.687
23,SCABER_URINARY_TRACT,0.714
24,SCC3_HAEMATOPOIETIC_AND_LYMPHOID_TISSUE,1

row,Test System,AUC of viability dose-response curve
1,SCC9_UPPER_AERODIGESTIVE_TRACT,0.687
2,SCC25_UPPER_AERODIGESTIVE_TRACT,1
3,SCLC21H_LUNG,1
4,SEM_HAEMATOPOIETIC_AND_LYMPHOID_TISSUE,0.347
5,SF126_CENTRAL_NERVOUS_SYSTEM,0.521
6,SF295_CENTRAL_NERVOUS_SYSTEM,0.833
7,SF539_CENTRAL_NERVOUS_SYSTEM,1
8,SG231_BILIARY_TRACT,0.46
9,SH4_SKIN,0.409
10,SH10TC_STOMACH,0.626
11,SHMAC5_PROSTATE,1
12,SHP77_LUNG,0.641
13,SIMA_AUTONOMIC_GANGLIA,0.3 ± 0.073
14,SISO_CERVIX,0.987
15,SJSA1_BONE,0.673 ± 0.46
16,SKES1_BONE,0.286 ± 0.11
17,SKGII_ENDOMETRIUM,0.894
18,SKGI_ENDOMETRIUM,1
19,SKGT2_STOMACH,0.887
20,SKGT4_OESOPHAGUS,0.575
21,SKHEP1_LIVER,1
22,SKLMS1_SOFT_TISSUE,0.829
23,SKLU1_LUNG,0.753
24,SKM1_HAEMATOPOIETIC_AND_LYMPHOID_TISSUE,1

row,Test System,AUC of viability dose-response curve
1,SKMEL2_SKIN,1
2,SKMEL3_SKIN,0.818
3,SKMEL5_SKIN,0.506
4,SKMEL24_SKIN,1
5,SKMEL28_SKIN,0.575
6,SKMEL30_SKIN,0.703
7,SKMES1_LUNG,0.848
8,SKNAS_AUTONOMIC_GANGLIA,1
9,SKNBE2_AUTONOMIC_GANGLIA,0.539 ± 0.23
10,SKNDZ_AUTONOMIC_GANGLIA,0.267
11,SKNFI_AUTONOMIC_GANGLIA,0.854
12,SKNMC_BONE,0.996
13,SKNO1_HAEMATOPOIETIC_AND_LYMPHOID_TISSUE,0.247
14,SKN_ENDOMETRIUM,0.778
15,SKOV3_OVARY,1
16,SKPNDW_BONE,1
17,SKUT1_SOFT_TISSUE,0.609
18,SMSCTR_SOFT_TISSUE,0.847
19,SNB75_CENTRAL_NERVOUS_SYSTEM,1
20,SNGM_ENDOMETRIUM,0.527
21,SNU1_STOMACH,1
22,SNU46_UPPER_AERODIGESTIVE_TRACT,0.547
23,SNU61_LARGE_INTESTINE,0.875
24,SNU81_LARGE_INTESTINE,0.767

# From the supplement of paper PMC12513837
